Reference: patent US8455194B2, “Diagnostic methods” (Isis Innovation Limited, priority 2008, dated 2013)
Like-named read-outs stand apart in the source and are kept apart here. Values belong to the compound of their own block, whether it stands above or below them.

Experiments:
[1] = system: SLCO1B1 rs4149056 SNP; conditions: summary estimate with interval in brackets; cited from earlier work
[2] = cited from earlier work
[3] = Asian subjects compared with a White (Caucasian) control group; cited from earlier work
[4] = system: LDL-cholesterol; test: Heart Protection Study (HPS): LDL-cholesterol reduction on 40 mg simvastatin daily; assay type: in vivo, human; conditions: 4-6 weeks of 40 mg simvastatin daily
Protocol: (§1) Using DNA extracted from 19,856 (97%) participants, the rs4149056 and rs2306283 SNPs in SLCO1B1 were successfully genotyped in 16,664 participants classified as Caucasian. Effects of these genotypes on myopathy risk and on LDL-cholesterol reduction were then assessed.
Among 16,664 genotyped participants in HPS,^22 the rs4149056 and rs2306283 variants were not associated with significant differences in pre-treatment LDL-cholesterol levels. […] These 17,000 genotyped participants without myopathy also provide an alternative control population for the SEARCH cases, yielding an odds ratio of 4.7 (3.5-6.4) per rs4149056 C allele and a stronger p-value of 3×10^−28.

[5] = Heart Protection Study (HPS): myopathy in participants allocated 40 mg simvastatin daily; assay type: in vivo, human
Protocol: as §1

[6] = for Cumulative percentage with myopathy / Estimated cumulative myopathy risk: 80 mg simvastatin daily; for Estimated cumulative myopathy risk: life-table analysis
Text: After randomisation, follow-up of participants was scheduled to occur at 2, 4, 8 and 12 months, and then at 6-monthly intervals. Information was sought about any possible myocardial infarction, hospitalisation for angina, stroke, vascular procedure, pulmonary embolus, cancer or other serious adverse experience. In addition, any new unexplained muscle pain or weakness was explicitly sought and recorded. A blood sample was taken at each follow-up visit for central laboratory assay of CK and ALT.
Standard 1d.f. (trend) and 2 d.f. […] Haploview v4.0 release candidate 2^25 was used to estimate linkage disequilibrium and plot association results for genotyped SNPs. Haplotype frequencies and associated risks were estimated using tools in the haplo.stats (v1.3.1) package^26 in R (v2.6.1)^27. Physical positions refer to NCBI build-36 of the human genome, and alleles are expressed in the forward strand of the reference human genome (NCBI build-36). Ensembl version 46 and NCBI dbSNP build 127 and published reports^11,28,29 were used to classify SNPs as synonymous or non-synonymous and to identify their location within introns or exons.

[7] = among 10,269 participants allocated 40 mg simvastatin daily, 5 years average follow-up
[8] = among 6031 participants allocated 80 mg simvastatin daily, average follow-up about 6 years
[9] = among 6033 participants allocated 20 mg simvastatin daily

SMILES: CC(C)n1c(/C=C/C(O)CC(O)CC(=O)O)c(-c2ccc(F)cc2)c2ccccc21 (stereo not drawn) [Fluvastatin (acid), Fluvastatin]
% higher AUC per C allele among studies of this statin [1]: 10 (−9, 34) %

SMILES: O=C(O)C[C@H](O)C[C@H](O)/C=C/c1c(C2CC2)nc2ccccc2c1-c1ccc(F)cc1 [Pitavastatin (acid), Pitavastatin]
% higher AUC per C allele among studies of this statin [1]: 37 (10, 71) %

SMILES: CC[C@H](C)C(=O)O[C@H]1C[C@H](O)C=C2C=C[C@H](C)[C@H](CC[C@@H](O)C[C@@H](O)CC(=O)O)[C@H]21 [Pravastatin (acid), Pravastatin]
% higher AUC per C allele among studies of this statin [1]: 35 (17, 56) %

SMILES: CC(C)c1nc(N(C)S(C)(=O)=O)nc(-c2ccc(F)cc2)c1/C=C/[C@@H](O)C[C@@H](O)CC(=O)O [Rosuvastatin (acid), Rosuvastatin]
Increase in AUC of rosuvastatin ([2]; rosuvastatin combined with cyclosporine): 7-11 times
% higher AUC per C allele among studies of this statin [1]: 31 (15, 42) %
Elevation in median exposure of rosuvastatin [3]: ~2 fold

SMILES: CCC(C)(C)C(=O)O[C@H]1C[C@@H](C)C=C2C=C[C@H](C)[C@H](CC[C@@H](O)C[C@@H](O)CC(=O)O)[C@H]21 [Simvastatin acid]
% higher AUC per C allele among studies of this statin [1]: 61 (30, 100) %

SMILES: Cc1ccc(C)c(OCCCC(C)(C)C(=O)O)c1 [gemfibrozil]
Increase in area under the statin elimination curve (AUC) ([2]; gemfibrozil given concomitantly with several statins): 2-4 fold

Number of definite myopathy cases [5, 7]: 10
Number of incipient myopathy cases [5, 7]: 14
Number of myopathy cases (definite plus incipient) [5, 7]: 24
Number of definite or incipient myopathy cases while taking statin ([5]; participants taking their allocated 40 mg simvastatin daily): 23
Cumulative percentage with myopathy ([6]; all genotypes, Year 1): 0.91%
Cumulative percentage with myopathy ([6]; all genotypes, Year 5): 1.56%
Estimated cumulative myopathy risk ([6]; rs4149056 CC homozygotes): 18%
Estimated cumulative myopathy risk ([6]; rs4149056 CT genotype): about 3%
Estimated cumulative myopathy risk ([6]; rs4149056 TT homozygotes): 0.6%
Cumulative percentage with myopathy ([6]; rs4149056 genotype CC, Year 1): 15.25%
Cumulative percentage with myopathy ([6]; rs4149056 genotype CC, Year 5): 18.55%
Cumulative percentage with myopathy ([6]; rs4149056 genotype CT, Year 1): 1.38%
Cumulative percentage with myopathy ([6]; rs4149056 genotype CT, Year 5): 2.83%
Cumulative percentage with myopathy ([6]; rs4149056 genotype TT, Year 1): 0.34%
Cumulative percentage with myopathy ([6]; rs4149056 genotype TT, Year 5): 0.63%
Number of definite myopathy cases [6, 8]: 49
Number of incipient myopathy cases [6, 8]: 49
Number of definite myopathy cases [6, 9]: 2
Number of incipient myopathy cases [6, 9]: 6
SMILES: CCC(C)(C)C(=O)O[C@H]1C[C@@H](C)C=C2C=C[C@H](C)[C@H](CC[C@@H]3C[C@@H](O)CC(=O)O3)[C@H]21 [simvastatin]
Average reduction in LDL-cholesterol ([4]; 16,664 genotyped participants, SE 0.12): 40.57%
Larger LDL-cholesterol reduction per rs2306283 G allele ([4]; both variants considered together, SE 0.18): 0.62%
Smaller LDL-cholesterol reduction per rs4149056 C allele ([4]; both variants considered together, SE 0.25): 1.28%
